Assay results reported in patent US20240398828A1, “HETERO-ATOM CONTAINING COMPOUNDS AND USES THEREOF” (Kumquat Biosciences Inc., priority 2021, published 2024).

What was measured:
PTPN2 (i.e., TC-PTP) = biological target: T1, PTPN2 (i.e., TC-PTP) (Homo sapiens, UniProt P17706); test: Phosphatase activity assay (DiFMUP substrate), PTPN2; format: biochemical; settings: compounds binned ≤1 uM or >1 uM
T1 sequence (P17706 1-415): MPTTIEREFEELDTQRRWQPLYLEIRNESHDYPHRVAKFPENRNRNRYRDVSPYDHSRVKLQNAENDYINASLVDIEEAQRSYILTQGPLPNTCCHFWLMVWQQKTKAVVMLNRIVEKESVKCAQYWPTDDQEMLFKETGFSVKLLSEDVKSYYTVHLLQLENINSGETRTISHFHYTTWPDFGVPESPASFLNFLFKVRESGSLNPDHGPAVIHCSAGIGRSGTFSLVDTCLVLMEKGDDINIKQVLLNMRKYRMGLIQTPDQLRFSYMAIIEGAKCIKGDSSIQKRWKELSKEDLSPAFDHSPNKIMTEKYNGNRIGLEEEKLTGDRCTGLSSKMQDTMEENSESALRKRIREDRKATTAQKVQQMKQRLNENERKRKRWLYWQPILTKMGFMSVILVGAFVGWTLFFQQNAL
In short: (§1)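 Read-out is continuous fluorescence of DiFMU (360 nm excitation, 450 nm emission) over about 15-30 minutes, with DiFMUP substrate at the enzyme's independently determined Km (PTPN2 approx. 45 μM final). Buffer: 50 mM HEPES pH 7.5, 150 mM NaCl, 0.5 mM EDTA, 1 mM DTT, 0.001% Tween-20, room temperature; initial rates versus 10-point dilution fitted for IC50, at least duplicate.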

PTPN1 (i.e., PTP1B) = biological target: T2, PTPN1 (i.e., PTP1B) (Homo sapiens, UniProt P18031); test: Phosphatase activity assay (DiFMUP substrate), PTP1B; format: biochemical; settings: compounds binned ≤1 uM or >1 uM
T2 sequence (P18031 1-435): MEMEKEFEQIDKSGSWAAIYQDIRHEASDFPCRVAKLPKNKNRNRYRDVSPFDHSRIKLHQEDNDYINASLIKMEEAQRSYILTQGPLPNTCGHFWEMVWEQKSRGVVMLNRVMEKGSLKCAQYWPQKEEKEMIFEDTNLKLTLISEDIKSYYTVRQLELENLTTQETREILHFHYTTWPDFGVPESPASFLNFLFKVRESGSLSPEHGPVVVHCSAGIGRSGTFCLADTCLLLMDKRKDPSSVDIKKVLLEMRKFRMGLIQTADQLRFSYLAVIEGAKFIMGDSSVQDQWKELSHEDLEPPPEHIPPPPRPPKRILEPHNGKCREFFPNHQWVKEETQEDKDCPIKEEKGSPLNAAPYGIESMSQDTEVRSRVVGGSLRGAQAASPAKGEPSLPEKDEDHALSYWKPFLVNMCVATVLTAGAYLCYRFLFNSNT
In short: as §1

| SMILES | IC50 (PTPN2 (i.e., TC-PTP)) [µM] | IC50 (PTPN1 (i.e., PTP1B)) [µM] |
| --- | --- | --- |
| O=C1CN(c2c(O)ccc(-c3cnc(C4CC4)o3)c2F)S(=O)(=O)N1 [Compound 249, 5-(3-(2-cyclopropyloxazol-5-yl)-2-fluoro-6-hydroxyphenyl)-1,2,5-thiadiazolidin-3-one 1,1-dioxide] | ≤ 1 | ≤ 1 |
| N#C[C@H]1CC[C@H](n2cnc(-c3ccc(O)c(N4CC(=O)NS4(=O)=O)c3F)c2)CC1 [Compound 250, (1r,4r)-4-(4-(3-(1,1-dioxido-4-oxo-1,2,5-thiadiazolidin-2-yl)-2-fluoro-4-hydroxyphenyl)-1H-imidazol-1-yl)cyclohexane-1-carbonitrile] | > 1 | ≤ 1 |
| O=C1CN(c2c(O)ccc(C3=CCN(S(=O)(=O)CCC(F)(F)F)C3)c2F)S(=O)(=O)N1 [Compound 251, 5-(2-fluoro-6-hydroxy-3-(1-((3,3,3-trifluoropropyl)sulfonyl)-2,5-dihydro-1H-pyrrol-3-yl)phenyl)-1,2,5-thiadiazolidin-3-one 1,1-dioxide] | ≤ 1 | ≤ 1 |
| CN1CC2(C1)CN(c1cc(-c3ccc(O)c(N4CC(=O)NS4(=O)=O)c3F)[nH]n1)C2 [Compound 252, 5-(2-fluoro-6-hydroxy-3-(3-(6-methyl-2,6-diazaspiro[3.3]heptan-2-yl)-1H-pyrazol-5-yl)phenyl)-1,2,5-thiadiazolidin-3-one 1,1-dioxide] | ≤ 1 | ≤ 1 |
| O=C1CN(c2c(O)ccc(-c3cc(C#CC4CCCCC4)n[nH]3)c2F)S(=O)(=O)N1 [Compound 253, 5-(3-(3-(cyclohexylethynyl)-1H-pyrazol-5-yl)-2-fluoro-6-hydroxyphenyl)-1,2,5-thiadiazolidin-3-one 1,1-dioxide] | ≤ 1 | ≤ 1 |
| Cc1c(C2CC2)n[nH]c1-c1ccc(O)c(N2CC(=O)NS2(=O)=O)c1F [Compound 254, 5-(3-(3-cyclopropyl-4-methyl-1H-pyrazol-5-yl)-2-fluoro-6-hydroxyphenyl)-1,2,5-thiadiazolidin-3-one 1,1-dioxide] | ≤ 1 | ≤ 1 |
| O=C1CN(c2c(O)ccc(-c3cc(CCCC(F)(F)F)n[nH]3)c2F)S(=O)(=O)N1 [Compound 255, 5-(2-fluoro-6-hydroxy-3-(3-(4,4,4-trifluorobutyl)-1H-pyrazol-5-yl)phenyl)-1,2,5-thiadiazolidin-3-one 1,1-dioxide] | ≤ 1 | ≤ 1 |
| O=C1CN(c2c(O)ccc(-c3cc(C4CC4)no3)c2F)S(=O)(=O)N1 [Compound 256, 5-(3-(3-cyclopropylisoxazol-5-yl)-2-fluoro-6-hydroxyphenyl)-1,2,5-thiadiazolidin-3-one 1,1-dioxide] | ≤ 1 | ≤ 1 |
| O=C1CN(c2c(O)ccc(-c3c[nH]c(CCC4CC4)c3)c2F)S(=O)(=O)N1 [Compound 257, 5-(3-(5-(2-cyclopropylethyl)-1H-pyrrol-3-yl)-2-fluoro-6-hydroxyphenyl)-1,2,5-thiadiazolidin-3-one 1,1-dioxide] | ≤ 1 | ≤ 1 |
| O=C1CN(c2c(O)ccc(-c3cc4ccccc4[nH]3)c2F)S(=O)(=O)N1 [Compound 258, 5-(2-fluoro-6-hydroxy-3-(1H-indol-2-yl)phenyl)-1,2,5-thiadiazolidin-3-one 1,1-dioxide] | ≤ 1 | ≤ 1 |
| CN1CCC(n2cc(-c3ccc(O)c(N4CC(=O)NS4(=O)=O)c3F)cn2)CC1 [Compound 259, 5-(2-fluoro-6-hydroxy-3-(1-(1-methylpiperidin-4-yl)-1H-pyrazol-4-yl)phenyl)-1,2,5-thiadiazolidin-3-one 1,1-dioxide] | ≤ 1 | ≤ 1 |
| O=C1CN(c2c(O)ccc(-c3cnn(C4CC4)c3)c2Cl)S(=O)(=O)N1 [Compound 260, 5-(2-chloro-3-(1-cyclopropyl-1H-pyrazol-4-yl)-6-hydroxyphenyl)-1,2,5-thiadiazolidin-3-one 1,1-dioxide] | ≤ 1 | ≤ 1 |
| O=C1CN(c2c(O)ccc(-c3ccc(NS(=O)(=O)C4CC4)cn3)c2F)S(=O)(=O)N1 [Compound 261, N-(6-(3-(1,1-dioxido-4-oxo-1,2,5-thiadiazolidin-2-yl)-2-fluoro-4-hydroxyphenyl)pyridin-3-yl)cyclopropanesulfonamide] | ≤ 1 | ≤ 1 |
| CC(C)CCc1cnc(-c2ccc(O)c(N3CC(=O)NS3(=O)=O)c2F)[nH]1 [Compound 262, 5-(2-fluoro-6-hydroxy-3-(5-isopentyl-1H-imidazol-2-yl)phenyl)-1,2,5-thiadiazolidin-3-one 1,1-dioxide] | ≤ 1 | ≤ 1 |
| Cc1ncc(-c2ccc(O)c(N3CC(=O)NS3(=O)=O)c2F)[nH]1 [Compound 263, 5-(2-fluoro-6-hydroxy-3-(2-methyl-1H-imidazol-5-yl)phenyl)-1,2,5-thiadiazolidin-3-one 1,1-dioxide] | ≤ 1 | ≤ 1 |
| O=C1CN(c2c(O)ccc(-c3cnn(C(F)(F)F)c3)c2F)S(=O)(=O)N1 [Compound 264, 5-(2-fluoro-6-hydroxy-3-(1-(trifluoromethyl)-1H-pyrazol-4-yl)phenyl)-1,2,5-thiadiazolidin-3-one 1,1-dioxide] | ≤ 1 | ≤ 1 |
| O=C1CN(c2c(O)ccc(-c3cn(-c4cc(F)cc(F)c4)cn3)c2F)S(=O)(=O)N1 [Compound 265, 5-(3-(1-(3,5-difluorophenyl)-1H-imidazol-4-yl)-2-fluoro-6-hydroxyphenyl)-1,2,5-thiadiazolidin-3-one 1,1-dioxide] | ≤ 1 | ≤ 1 |
| O=C1CN(c2c(O)ccc(-c3cc(C4CCCC4)n[nH]3)c2F)S(=O)(=O)N1 [Compound 266, 5-(3-(3-cyclopentyl-1H-pyrazol-5-yl)-2-fluoro-6-hydroxyphenyl)-1,2,5-thiadiazolidin-3-one 1,1-dioxide] | ≤ 1 | ≤ 1 |
| O=C1CN(c2c(O)ccc(C3=CCN(CC4CCCCC4)C3)c2F)S(=O)(=O)N1 [Compound 267, 5-(3-(1-(cyclohexylmethyl)-2,5-dihydro-1H-pyrrol-3-yl)-2-fluoro-6-hydroxyphenyl)-1,2,5-thiadiazolidin-3-one 1,1-dioxide] | ≤ 1 | ≤ 1 |
| O=C1CN(c2c(O)ccc(-c3cn(C4CCC(F)(F)CC4)cn3)c2F)S(=O)(=O)N1 [Compound 268, 5-(3-(1-(4,4-difluorocyclohexyl)-1H-imidazol-4-yl)-2-fluoro-6-hydroxyphenyl)-1,2,5-thiadiazolidin-3-one 1,1-dioxide] | ≤ 1 | ≤ 1 |
| CC(C)CNC1(c2cc(-c3ccc(O)c(N4CC(=O)NS4(=O)=O)c3F)nn2C)CC1 [Compound 269, 5-(2-fluoro-6-hydroxy-3-(5-(1-(isobutylamino)cyclopropyl)-1-methyl-1H-pyrazol-3-yl)phenyl)-1,2,5-thiadiazolidin-3-one 1,1-dioxide] | ≤ 1 | ≤ 1 |
| O=C1CN(c2c(O)ccc(-n3cc(C4CC4)cn3)c2F)S(=O)(=O)N1 [Compound 270, 5-(3-(4-cyclopropyl-1H-pyrazol-1-yl)-2-fluoro-6-hydroxyphenyl)-1,2,5-thiadiazolidin-3-one 1,1-dioxide] | > 1 | > 1 |
| CN1CC2(CCC(n3cc(-c4ccc(O)c(N5CC(=O)NS5(=O)=O)c4F)cn3)CC2)C1 [Compound 271, 5-(2-fluoro-6-hydroxy-3-(1-(2-methyl-2-azaspiro[3.5]nonan-7-yl)-1H-pyrazol-4-yl)phenyl)-1,2,5-thiadiazolidin-3-one 1,1-dioxide] | ≤ 1 | ≤ 1 |
| O=C1CN(c2c(O)ccc(-c3ccn(CC4CCCCC4)c3)c2F)S(=O)(=O)N1 [Compound 272, 5-(3-(1-(cyclohexylmethyl)-1H-pyrrol-3-yl)-2-fluoro-6-hydroxyphenyl)-1,2,5-thiadiazolidin-3-one 1,1-dioxide] | ≤ 1 | ≤ 1 |
| O=C1CN(c2c(O)ccc(-c3cnn(C(F)F)c3)c2F)S(=O)(=O)N1 [Compound 273, 5-(3-(1-(difluoromethyl)-1H-pyrazol-4-yl)-2-fluoro-6-hydroxyphenyl)-1,2,5-thiadiazolidin-3-one 1,1-dioxide] | ≤ 1 | ≤ 1 |
| COCC#Cc1cc(-c2ccc(O)c(N3CC(=O)NS3(=O)=O)c2F)[nH]n1 [Compound 274, 5-(2-fluoro-6-hydroxy-3-(3-(3-methoxyprop-1-yn-1-yl)-1H-pyrazol-5-yl)phenyl)-1,2,5-thiadiazolidin-3-one 1,1-dioxide] | ≤ 1 | ≤ 1 |
